# Reference: patent US7462713B2, “Tricyclic compounds protein kinase inhibitors for enhancing the efficacy of anti-neoplastic agents and radiation therapy” (Agouron Pharmaceuticals, Inc., priority 2003, dated 2008)
# Counter-ions that a name gives are not always drawn.
# Target: T1, kinase domain of human CHK-1 (KH289) (Homo sapiens, UniProt O14757)
# T1 construct: kinase domain of human CHK-1 (KH289), amino acid residues 1-289; made in house; host or cells: baculovirus (Bac-to-Bac); Hi-S insect cells for protein production, Sf9/Sf21 for virus amplification
# T1 sequence (O14757 1-289): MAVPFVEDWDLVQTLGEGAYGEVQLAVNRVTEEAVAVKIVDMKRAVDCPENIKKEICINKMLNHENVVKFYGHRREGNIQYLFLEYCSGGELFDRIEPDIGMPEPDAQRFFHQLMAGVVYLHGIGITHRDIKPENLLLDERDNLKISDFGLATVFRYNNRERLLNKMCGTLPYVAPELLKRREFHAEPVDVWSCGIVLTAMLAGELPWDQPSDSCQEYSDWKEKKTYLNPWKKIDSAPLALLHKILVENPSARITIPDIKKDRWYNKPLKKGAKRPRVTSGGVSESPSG
# Assay: CHK-1 coupled spectrophotometric enzyme assay (Syntide-2, PK/LDH, NADH oxidation)
# Format: biochemical
# Settings: 10 nM KH289, 0.15 mM ATP, 0.125 mM Syntide-2, pH 7.5
# Excerpt: As previously detailed in European Patent Application No. 1 096 014 A2 (filed Oct. 31, 2000), the C-terminally His-tagged kinase domain of human CHK-1 (KH289), amino acid residues 1-289, can be expressed using the baculovirus/insect cell system. […] The Bac-to-Bac system (Life Technologies) can be used to generate recombinant baculovirus for the expression of KH289 as per instructions. Recombinant viruses can be confirmed by PCR for the presence of CHK-1 cDNA insertion. […] Sf9 insect cells (Invitrogen, Carlsbad, Calif., USA) can be used for initial amplification of recombinant virus stock. High titer stocks of recombinant viruses can be generated by 2 to 3 rounds of amplification using Sf21 insect cells. Hi-S insect cells (Invitrogen, Carlsbad, Calif., USA) can be used for protein production. Both Sf9 and Hi-S cell lines can be adapted to grow in insect medium containing 1% Fetal Bovine Serum (Life Technologies, Grand Island, N.Y., USA). The viral stock was stored at […] and used for large-scale protein production within 2 months to avoid viral instability. For protein production, infected Hi-S cells can be harvested by centrifugation and stored at −80° C. From these cells, 6X-His tagged KH289 (identified by SDS-PAGE) can be obtained after purification and can be flash-frozen in liquid N2 and stored at −80° C.
# As previously detailed in European Patent Application No. 1 096 014 A2 (filed Oct. 31, 2000), the enzymatic activity of a kinase can be measured by its ability to catalyze the transfer of a phosphate residue from a nucleoside triphosphate to an amino acid side chain in a selected protein target. The conversion of ATP to ADP generally accompanies the catalytic reaction. Herein, a synthetic substrate peptide, Syntide-2, having amino acid sequence […] can be utilized. The production of ADP from ATP that accompanies phosphoryl transfer to the substrate can be coupled to oxidation of NADH using phosphoenolpyruvate (PEP) through the actions of pyruvate kinase (PK) and lactic dehydrogenase (LDH). The oxidation of NADH can be monitored by following the decrease of absorbance at 340 nm (e340=6.22 cm-1 mM-1) using a HP8452 spectrophotometer. Typical reaction solutions contained: 4 mM PEP, 0.15 mM NADH, 28 units of LDH/mL, 16 units of PK/mL, 3 mM DTT, 0.125 mM Syntide-2, 0.15 mM ATP and 25 mM MgCl2 in 50 mM TRIS pH 7.5; 400 mM NaCl. Assays can be initiated with 10 nM of kinase domain of CHK-1, KH289. Ki values can be determined by measuring initial enzyme activity in the presence of varying concentrations of inhibitors. The data can be analyzed using Enzyme Kinetic and Kaleidagraph software.
row,Ki [nM],Molecule
1,0.01,"Cc1cc(-c2[nH]c3cc(NC(=O)[C@H](N)CCc4ccccc4)cc4c3c2C=NNC4=O)on1 [Example 268, (2R)-2-Amino-N-[2-(3-methyl-isoxazol-5-yl)-6-oxo-5,6-dihydro-1H-[1,2]diazepino[4,5,6-cd]indol-8-yl]-4-phenyl-butylamide (hydrochloric salt)]"
2,0.15,"Cc1cc(-c2[nH]c3cc(NC(=O)[C@H](N)C4Cc5ccccc5C4)cc4c3c2C=NNC4=O)on1 [Example 269, (2R)-2-Amino-2-indan-2-yl-N-[2-(3-methyl-isoxazol-5-yl)-6-oxo-5,6-dihydro-1H-[1,2]diazepino[4,5,6-cd]indol-8-yl]-acetamide]"
3,0.79,"Cn1cc(-c2[nH]c3cc(NC(=O)CNCc4ccccc4)cc4c3c2C=NNC4=O)cn1 [Example 270, 2-Benzylamino-N-[2-(1-methyl-1H-pyrazol-4-yl)-6-oxo-5,6-dihydro-1H-[1,2]diazepino[4,5,6-cd]indol-8-yl]-acetamide (hydrochloric salt)]"
4,0.46,"Cn1cc(-c2[nH]c3cc(NC(=O)[C@H](N)c4ccc(F)cc4)cc4c3c2C=NNC4=O)cn1 [Example 273, (2R)-2-Amino-2-(4-fluoro-phenyl)-N-[2-(1-methyl-1H-pyrazol-4-yl)-6-oxo-5,6-dihydro-1H-[1,2]diazepino[4,5,6-cd]indol-8-yl]-acetamide (hydrochloric salt)]"
5,2,"CN(CC(=O)Nc1cc2c3c(c(-c4cnn(C)c4)[nH]c3c1)C=NNC2=O)Cc1ccccc1 [Example 274, 2-(Benzyl-methyl-amino)-N-[2-(1-methyl-1H-pyrazol-4-yl)-6-oxo-5,6-dihydro-1H-[1,2]diazepino[4,5,6-cd]indol-8-yl]-acetamide]"
6,7,"O=C1NN=Cc2c[nH]c3cc(OCC4CC4c4ccccc4)cc1c23 (centres unmarked) [Example 275, 8-[(2-phenylcyclopropyl)methoxy]-1,5-dihydro-6H-[1,2]diazepino[4,5,6-cd]indol-6-one]"
7,4.5,"N[C@H](CCc1ccccc1)C(=O)Nc1cc2c3c(c[nH]c3c1)C=NNC2=O [Example 276, (2R)-2-Amino-N-(6-oxo-5,6-dihydro-1H-[1,2]diazepino[4,5,6-cd]indol-8-yl)-4-Phenyl-butylamide (hydrochloric salt)]"
8,0.55,"N[C@H](CCc1ccccc1)C(=O)Nc1cc2c3c(c(-c4ccccn4)[nH]c3c1)C=NNC2=O [Example 277, (2R)-2-amino-N-(6-oxo-2-pyridin-2-yl-5,6-dihydro-1H-[1,2]diazepino[4,5,6-cd]indol-8-yl)-4-phenylbutanamide]"
9,0.47,"N[C@@H](C(=O)Nc1cc2c3c(c(-c4ccccn4)[nH]c3c1)C=NNC2=O)C1Cc2ccccc2C1 [Example 278, (2R)-2-amino-2-(2,3-dihydro-1H-inden-2-yl)-N-(6-oxo-2-pyridin-2-yl-5,6-dihydro-1H-[1,2]diazepino[4,5,6-cd]indol-8-yl)acetamide (hydrochloric salt)]"

# Further lines, the molecule ahead of its results:
row,Molecule,Ki [nM]
1,"Cn1cc(-c2[nH]c3cc(NC(=O)[C@H](N)C4Cc5ccccc5C4)cc4c3c2C=NNC4=O)cn1 [Example 255, (2R)-2-Amino-2-indan-2-yl-N-[2-(1-methyl-1H-pyrazol-4-yl)-6-oxo-5,6-dihydro-1H-[1,2]diazepino[4,5,6-cd]indol-8-yl]-acetamide (hydrochloric salt)]",0.14
2,"Cn1cc(-c2[nH]c3cc(NC(=O)[C@H](N)CCc4ccccc4)cc4c3c2C=NNC4=O)cn1 [Example 256, (2R)-2-Amino-N-[2-(1-methyl-1H-pyrazol-4-yl)-6-oxo-5,6-dihydro-1H-[1,2]diazepino[4,5,6-cd]indol-8-yl]-4-phenyl-butylamide (hydrochloric salt)]",0.78
3,"N[C@@H](C(=O)Nc1cc2c3c(c[nH]c3c1)C=NNC2=O)C1Cc2ccccc2C1 [Example 257, (2R)-2-Amino-2-indan-2-yl-N-(6-oxo-5,6-dihydro-1H-[1,2]diazepino[4,5,6-cd]indol-8-yl)-acetamide (hydrochloric salt)]",0.27
4,"N[C@H](CCc1ccccc1)C(=O)Nc1cc2c3c(c(Br)[nH]c3c1)C=NNC2=O [Example 259, (2R)-2-Amino-N-(2-bromo-6-oxo-5,6-dihydro-1H-[1,2]diazepino[4,5,6-cd]indol-8-yl)-4-phenyl-butylamide (hydrochloric salt)]",0.99
5,"Cc1ccc(-c2[nH]c3cc(NC(=O)[C@H](N)C4Cc5ccccc5C4)cc4c3c2C=NNC4=O)cn1 [Example 260, (2R)-2-Amino-2-indan-2-yl-N-[2-(6-methyl-pyridin-3-yl)-6-oxo-5,6-dihydro-1H-[1,2]diazepino[4,5,6-cd]indol-8-yl]-acetamide (hydrochloric salt)]",0.42
6,"N[C@H](CCc1ccccc1)C(=O)Nc1cc2c3c(c(Cl)[nH]c3c1)C=NNC2=O [Example 261, (2R)-2-Amino-N-(2-chloro-6-oxo-5,6-dihydro-1H-[1,2]diazepino[4,5,6-cd]indol-8-yl)-4-phenyl-butylamide (hydrochloric salt)]",2
7,"Cn1cc(-c2[nH]c3cc(NC(=O)[C@]4(N)C[C@H]4c4ccccc4)cc4c3c2C=NNC4=O)cn1 [Example 262, (1S,2S)-1-Amino-2-phenyl-cyclopropanecarboxylic acid [2-(1-methyl-1H-Pyrazol-4-yl)-6-oxo-5,6-dihydro-1H-[1,2]diazepino[4,5,6-cd]indol-8-yl]-amide (hydrochloric salt)]",0.3
8,"Cn1cc(-c2[nH]c3cc(NC(=O)[C@H](N)COc4ccc(F)cc4)cc4c3c2C=NNC4=O)cn1 [Example 263, (2R)-2-Amino-3-(4-fluoro-phenoxy)-N-[2-(1-methyl-1H-pyrazol-4-yl)-6-oxo-5,6-dihydro-1H-[1,2]diazepino[4,5,6-cd]indol-8-yl]-propionamide (hydrochloric salt)]",0.43
9,"Cn1cc(-c2[nH]c3cc(NC(=O)[C@H](N)COc4ccccc4)cc4c3c2C=NNC4=O)cn1 [Example 264, (2R)-2-Amino-N-[2-(1-methyl-1H-pyrazol-4-yl)-6-oxo-5,6-dihydro-1H-[1,2]diazepino[4,5,6-cd]indol-8-yl]-3-phenoxy-propionamide (hydrochloric salt)]",0.48
10,"N[C@@H](C(=O)Nc1cc2c3c(c(Cl)[nH]c3c1)C=NNC2=O)C1Cc2ccccc2C1 [Example 265, (2R)-2-Amino-N-(2-chloro-6-oxo-5,6-dihydro-1H-[1,2]diazepino[4,5,6-cd]indol-8-yl)-2-indan-2-yl-acetamide (hydrochloric salt)]",0.73
11,"Cn1cnc(-c2[nH]c3cc(NC(=O)[C@H](N)CCc4ccccc4)cc4c3c2C=NNC4=O)c1 [Example 266, (2R)-2-Amino-N-[2-(1-methyl-1H-imidazol-4-yl)-6-oxo-5,6-dihydro-1H-[1,2]diazepino[4,5,6-cd]indol-8-yl]-4-phenyl-butylamide (hydrochloric salt)]",0.29
12,"Cc1ccc(-c2[nH]c3cc(NC(=O)[C@H](N)CCc4ccccc4)cc4c3c2C=NNC4=O)cn1 [Example 267, (2R)-2-Amino-N-[2-(6-methyl-pyridin-3-yl)-6-oxo-5,6-dihydro-1H-[1,2]diazepino[4,5,6-cd]indol-8-yl]-4-phenyl-butylamide (hydrochloric salt)]",0.78
13,"Cn1cnc(-c2[nH]c3cc(NC(=O)[C@H](N)C4CCCCC4)cc4c3c2C=NNC4=O)c1 [Example 271, (2R)-2-Amino-2-cyclohexyl-N-[2-(1-methyl-1H-imidazol-4-yl)-6-oxo-5,6-dihydro-1H-[1,2]diazepino[4,5,6-cd]indol-8-yl]-acetamide (hydrochloric salt)]",1.2
14,"(2R)-2-Amino-2-indan-2-yl-N-[2-(1-methyl-1H-imidazol-4-yl)-6-oxo-5,6-dihydro-1H-[1,2]diazepino[4,5,6-cd]indol-8-yl]-acetamide (hydrochloric salt) [Example 272]",0.2
